Results taken from ChEMBL document CHEMBL3301562, “MMV Box screening against Plasmodium falciparum protein kinases and aminoacyl tRNA synthetases”.

Columns and labels:
Format in all cases: functional
[1] = biological target: T1, Putative uncharacterized protein pk7 (Plasmodium falciparum, UniProt O96214); test: Final concentrations were 1 uM ATP, 2 mM DTT, 20 mM MgCl2, 2 mM MnCl2, 0.01% BSA, and 6 ug/ml PK7, in a buffer of 20 mM Tris-HCl (pH 7.5). The enzyme itself was the only substrate present (since autophosphorylation occurs); 100 uM 1NA-PP1 was used as a control inhibitor. Incubation time was 3 hours.
T1 sequence (O96214 whole entry): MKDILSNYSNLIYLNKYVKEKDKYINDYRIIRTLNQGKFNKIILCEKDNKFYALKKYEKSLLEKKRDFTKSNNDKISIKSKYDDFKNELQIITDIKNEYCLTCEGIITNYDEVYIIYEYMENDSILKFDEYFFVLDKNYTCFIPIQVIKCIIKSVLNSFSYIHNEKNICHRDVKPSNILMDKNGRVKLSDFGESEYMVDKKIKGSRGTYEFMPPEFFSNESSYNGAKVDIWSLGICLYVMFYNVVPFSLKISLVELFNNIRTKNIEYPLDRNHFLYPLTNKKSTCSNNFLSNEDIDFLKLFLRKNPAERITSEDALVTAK

[2] = biological target: Calcium-dependent protein kinase 1 (Plasmodium falciparum, UniProt P62344); test: MMV: CDPK1 Protein kinase inhibition assay using recombinant PfCDPK1, syntide 2 peptide substrate, ATP and KinaseGlo to measure % inhibition at 1 uM MMV box compound.
Calcium-dependent protein kinase 1, sequence (P62344 whole entry): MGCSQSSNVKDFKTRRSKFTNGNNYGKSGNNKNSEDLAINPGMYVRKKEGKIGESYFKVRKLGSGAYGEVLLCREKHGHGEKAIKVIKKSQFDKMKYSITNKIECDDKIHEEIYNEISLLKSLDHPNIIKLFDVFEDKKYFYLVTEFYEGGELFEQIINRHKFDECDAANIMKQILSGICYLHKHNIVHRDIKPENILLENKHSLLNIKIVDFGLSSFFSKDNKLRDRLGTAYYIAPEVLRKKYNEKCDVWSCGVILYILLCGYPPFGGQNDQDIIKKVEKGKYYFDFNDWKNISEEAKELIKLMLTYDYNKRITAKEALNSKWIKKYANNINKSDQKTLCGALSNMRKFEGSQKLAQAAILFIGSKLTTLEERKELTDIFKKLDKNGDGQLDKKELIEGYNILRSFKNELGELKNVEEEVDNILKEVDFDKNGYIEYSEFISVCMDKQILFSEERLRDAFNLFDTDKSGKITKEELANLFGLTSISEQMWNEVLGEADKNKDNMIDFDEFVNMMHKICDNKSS

Lysine--tRNA ligase = Lysine--tRNA ligase (Plasmodium falciparum (isolate 3D7), UniProt Q8IDJ8); test: MMV: KRS recombinant Plasmodium falciparum Lysyl-tRNA-synthetase, assay with yeast tRNA, ATP, and lysine and 3 uM MMV malaria box compound, assay read out with kinase glo as % inhibition.
Lysine--tRNA ligase, sequence (Q8IDJ8 whole entry): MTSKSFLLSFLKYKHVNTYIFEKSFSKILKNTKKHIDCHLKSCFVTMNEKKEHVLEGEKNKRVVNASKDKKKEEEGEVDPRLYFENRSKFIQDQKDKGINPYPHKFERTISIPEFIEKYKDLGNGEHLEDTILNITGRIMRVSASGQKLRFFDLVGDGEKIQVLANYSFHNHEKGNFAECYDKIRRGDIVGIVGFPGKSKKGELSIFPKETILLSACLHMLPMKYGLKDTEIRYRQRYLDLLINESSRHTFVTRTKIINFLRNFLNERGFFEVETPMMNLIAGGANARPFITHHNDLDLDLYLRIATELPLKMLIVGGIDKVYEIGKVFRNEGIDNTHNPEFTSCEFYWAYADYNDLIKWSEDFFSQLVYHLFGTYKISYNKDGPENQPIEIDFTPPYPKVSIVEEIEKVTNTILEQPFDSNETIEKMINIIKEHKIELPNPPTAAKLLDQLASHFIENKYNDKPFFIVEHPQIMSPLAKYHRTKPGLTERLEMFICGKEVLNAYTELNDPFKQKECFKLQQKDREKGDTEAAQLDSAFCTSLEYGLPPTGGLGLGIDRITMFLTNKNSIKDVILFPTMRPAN

[3] = biological target: T2, Calcium-dependent protein kinase 4 (Plasmodium falciparum (isolate 3D7), UniProt Q8IBS5); test: MMV: CDPK4 Protein kinase inhibition assay using recombinant PfCDPK4, syntide2 peptide substrate, ATP and KinaseGlo to measure % inhibition at 1 uM MMV box compound.
T2 sequence (Q8IBS5 whole entry): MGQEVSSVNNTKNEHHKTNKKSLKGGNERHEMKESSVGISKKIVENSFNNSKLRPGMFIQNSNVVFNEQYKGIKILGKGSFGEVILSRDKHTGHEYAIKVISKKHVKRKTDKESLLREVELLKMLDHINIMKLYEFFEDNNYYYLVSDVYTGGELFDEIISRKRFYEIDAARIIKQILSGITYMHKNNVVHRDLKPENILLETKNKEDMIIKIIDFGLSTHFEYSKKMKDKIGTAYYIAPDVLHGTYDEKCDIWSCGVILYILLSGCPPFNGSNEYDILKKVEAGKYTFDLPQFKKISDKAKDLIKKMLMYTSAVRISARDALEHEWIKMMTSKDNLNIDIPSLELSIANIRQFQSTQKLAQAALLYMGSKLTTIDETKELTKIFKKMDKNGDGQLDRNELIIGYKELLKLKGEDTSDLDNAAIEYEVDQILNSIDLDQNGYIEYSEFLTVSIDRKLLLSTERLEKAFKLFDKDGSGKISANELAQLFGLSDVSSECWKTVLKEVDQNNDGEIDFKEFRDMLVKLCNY

Proline--tRNA ligase = biological target: T3, Proline--tRNA ligase (Plasmodium falciparum (isolate 3D7), UniProt Q8I5R7); test: MMV: ProRS recombinant Plasmodium falciparum Prolyl-tRNA-synthetase, assay with yeast tRNA, ATP, and proline and 3 uM MMV malaria box compound, assay read out with kinase glo as % inhibition.
T3 sequence (Q8I5R7 whole entry): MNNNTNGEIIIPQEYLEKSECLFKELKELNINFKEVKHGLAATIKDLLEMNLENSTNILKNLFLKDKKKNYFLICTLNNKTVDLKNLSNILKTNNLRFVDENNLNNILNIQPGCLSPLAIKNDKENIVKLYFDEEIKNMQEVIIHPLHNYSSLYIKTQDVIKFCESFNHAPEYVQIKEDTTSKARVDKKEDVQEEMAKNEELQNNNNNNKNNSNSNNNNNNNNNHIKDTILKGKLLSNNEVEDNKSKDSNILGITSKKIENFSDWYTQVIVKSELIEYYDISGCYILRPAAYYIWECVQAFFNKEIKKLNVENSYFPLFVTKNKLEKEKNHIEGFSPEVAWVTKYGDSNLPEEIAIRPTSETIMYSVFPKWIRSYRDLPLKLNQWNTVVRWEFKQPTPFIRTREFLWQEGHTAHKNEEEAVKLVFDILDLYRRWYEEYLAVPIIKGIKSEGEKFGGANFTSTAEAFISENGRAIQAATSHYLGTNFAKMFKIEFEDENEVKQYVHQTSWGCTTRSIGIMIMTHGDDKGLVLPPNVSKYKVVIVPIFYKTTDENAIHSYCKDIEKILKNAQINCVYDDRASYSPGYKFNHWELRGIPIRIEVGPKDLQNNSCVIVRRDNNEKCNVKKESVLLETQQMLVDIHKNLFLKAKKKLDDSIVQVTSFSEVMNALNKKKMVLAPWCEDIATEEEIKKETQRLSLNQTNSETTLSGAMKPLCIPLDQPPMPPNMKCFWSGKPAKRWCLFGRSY

[4] = biological target: T4, Mitogen-activated protein kinase (Plasmodium falciparum, UniProt Q25917); test: Final concentrations were 1 uM ATP, 0.5 mM DTT, 1 mM MgCl2, 0.5 mg/mL BSA, and 10 ug/ml MAP2 in a buffer of 50 mM HEPES (pH 7.0). 0.5 mg/mL histone III-S served as the substrate (13); 100 uM AMP-PNP, an ATP analog, was used as a control inhibitor. Incubation time was 4 hours.
T4 sequence (Q25917 whole entry): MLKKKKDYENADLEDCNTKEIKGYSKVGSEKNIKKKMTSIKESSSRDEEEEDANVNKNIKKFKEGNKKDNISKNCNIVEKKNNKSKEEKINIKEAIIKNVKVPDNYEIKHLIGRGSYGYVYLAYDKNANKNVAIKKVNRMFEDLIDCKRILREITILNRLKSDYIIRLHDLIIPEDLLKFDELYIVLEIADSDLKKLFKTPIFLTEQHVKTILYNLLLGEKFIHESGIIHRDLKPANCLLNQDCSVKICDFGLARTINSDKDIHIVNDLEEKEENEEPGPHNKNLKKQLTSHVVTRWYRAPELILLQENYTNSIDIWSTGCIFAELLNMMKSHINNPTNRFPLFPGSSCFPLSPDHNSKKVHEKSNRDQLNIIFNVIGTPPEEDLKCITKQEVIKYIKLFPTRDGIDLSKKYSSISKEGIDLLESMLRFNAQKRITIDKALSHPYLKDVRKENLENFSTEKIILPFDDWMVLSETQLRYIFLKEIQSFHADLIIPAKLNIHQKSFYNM

[5] = biological target: T5, Cdk-related protein kinase 6 (Plasmodium falciparum, UniProt O77239); test: Final concentrations were 1.5 uM ATP, 5 mM MnCl2, and 15 ug/ml PK6 in a buffer of 100 mM Tris-HCl (pH 7.5). 50 ug/mL MBP was provided as the substrate; 10 uM staurosporine was used as a control inhibitor. Incubation time was 3 hours and 40 minutes.The catalytic activity of each kinase was considered proportional to ATP consumed, as determined from measurements of residual [ATP] with the luciferase-based reagent Kinase-Glo (Promega) following incubation. Luminescence (proportional to residual [ATP]) was measured on the plate readers FLx800 (BioTek Instruments, Winooski, VT, USA) and MicroBeta2.
T5 sequence (O77239 whole entry): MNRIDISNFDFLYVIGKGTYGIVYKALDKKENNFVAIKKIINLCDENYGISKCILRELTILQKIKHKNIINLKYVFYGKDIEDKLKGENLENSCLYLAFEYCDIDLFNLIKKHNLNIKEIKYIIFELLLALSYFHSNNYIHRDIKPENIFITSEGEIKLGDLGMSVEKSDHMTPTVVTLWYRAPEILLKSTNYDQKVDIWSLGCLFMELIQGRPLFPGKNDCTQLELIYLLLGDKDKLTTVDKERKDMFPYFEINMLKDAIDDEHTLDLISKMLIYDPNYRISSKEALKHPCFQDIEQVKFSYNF

Row | Structure (SMILES) | IC50 [1] [nM] | IC50 [2] [nM] | IC50 (Lysine--tRNA ligase) [nM] | IC50 [3] [nM] | IC50 (Proline--tRNA ligase) [nM] | IC50 [4] [nM] | IC50 [5] [nM]
1 | Cc1cc(C)cc(Nc2cc(C)nc3nc(C(F)(F)F)nn23)c1 | > 1000 | > 1000 | > 2500 | > 1000 | > 2500 | > 1000 | > 1000
2 | O=C(NCC(c1ccsc1)N1CCCCCC1)c1ccc(C(F)(F)F)cc1 (stereo not given) | > 1000 | > 1000 | > 2500 | > 1000 | > 2500 | > 1000 | > 1000
3 | Cc1ccc(-c2cc3c(SCC(=O)Nc4cc(C(F)(F)F)ccc4Cl)nccn3n2)cc1 | > 1000 | > 1000 | > 2500 | > 1000 | > 2500 | > 1000 | > 1000
4 | CCCCCC(=O)N1c2ccccc2N=C2CC(c3ccc(OC)c(OC)c3)CC(O)=C2C1c1ccc(C(F)(F)F)cc1 (stereo not given) | > 1000 | > 1000 | > 2500 | > 1000 | > 2500 | > 1000 | > 1000
5 | Cc1cc(NCCN2CCCCC2)c2ccc3ccccc3c2n1 | > 1000 | > 1000 | > 2500 | > 1000 | > 2500 | > 1000 | > 1000
6 | Cc1ccc(N2C(=O)C3C(C2=O)C2(c4ccccc4)C(=O)C3(c3ccccc3)C(c3ccccc3)=C2c2ccccc2)cc1 (stereo not given) | > 1000 | > 1000 | > 2500 | > 1000 | > 2500 | > 1000 | > 1000
7 | CCc1c(C)c(=N)c2ccccc2n1C | > 1000 | > 1000 | > 2500 | > 1000 | > 2500 | > 1000 | > 1000
8 | CCOC(=O)C1=C(c2ccccc2)N=c2sc(=Cc3cc(C)n(-c4ccc(F)cc4)c3C)c(=O)n2C1c1cccc(OC)c1OC (stereo not given) | > 1000 | > 1000 | > 2500 | > 1000 | > 2500 | > 1000 | > 1000
9 | CCC1(C)CC(CCNCc2ccccc2O)(c2ccc(C)cc2)CCO1 (stereo not given) | > 1000 | > 1000 | > 2500 | > 1000 | > 2500 | > 1000 | > 1000
10 | Cc1cc(Nc2ccc(C)c(Cl)c2)n2nc(C(F)(F)F)nc2n1 | > 1000 | > 1000 | > 2500 | > 1000 | > 2500 | > 1000 | > 1000
